Several values for one entry are separate records, joined by “and”; a condition that tells them apart may be missing. Equal values may be shown once.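 All cell lines were grown in 96-well plates and treated with compound for 48 hours. GI50 = concentration required for 50% inhibition of growth. TGI marks complete inhibition of growth.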

Some test systems named below: HOP-62 NSCLC; MCF7 breast; OVCAR-3 ovarian; UACC-62 melanoma; HS 578T breast; CCRF-CEM leukemia; SNB-75 CNS; HCT-116 colon; OVCAR-8 ovarian; MDA-N.
Test in all cases: inhibition of tumour cell growth, NCI panel, 48 h

With `CC(=O)c1c2c(cc3c1CCC3)CCC2`, the TGI with HOP-62 NSCLC, with MCF7 breast, in the test on OVCAR-3 ovarian, in the test on UACC-62 melanoma, in the test on HS 578T breast and with CCRF-CEM leukemia was > 100 µM throughout. In addition, the TGI in the test on SNB-75 CNS, in the test with HCT-116 colon, with OVCAR-8 ovarian and in the test with MDA-N was > 100 µM in each case.

Take `CC(C)(CO)Nc1c(O)c2c(c(O)c1Cl)C(=O)C=CC2=O`: the TGI stood at 2.95 µM in the test on HOP-62 NSCLC; 2.65 µM with MCF7 breast; 2.9 µM in the test with OVCAR-3 ovarian; 2.72 µM in the test with UACC-62 melanoma; 3.41 µM in the test on HS 578T breast; 1.26 µM in the test with CCRF-CEM leukemia. For the same compound, the TGI in the test with SNB-75 CNS worked out at 2.6 µM; with HCT-116 colon, 3.07 µM; with OVCAR-8 ovarian, 2.71 µM; with MDA-N it was 2.26 µM.

In the case of `Cc1cc(=O)oc2c(CN(CCCl)CCCl)c(O)ccc12`, the TGI in the test with HOP-62 NSCLC was > 100 µM; with MCF7 breast, > 100 µM; in the test with OVCAR-3 ovarian, > 100 µM; in the test on UACC-62 melanoma, 71.2 µM; in the test on HS 578T breast it was > 100 µM; with CCRF-CEM leukemia, 31.7 µM. Further, the TGI with SNB-75 CNS, with HCT-116 colon, in the test on OVCAR-8 ovarian and with MDA-N was > 100 µM each time.

Regarding `O=C1CSC(c2cc3cc(Br)ccc3nc2Cl)N1c1ccc(F)c(Cl)c1` (stereo unspecified), the TGI in the test with HOP-62 NSCLC, with MCF7 breast, with OVCAR-3 ovarian, in the test on UACC-62 melanoma, in the test on HS 578T breast and with CCRF-CEM leukemia was > 50 µM throughout. The TGI in the test on SNB-75 CNS, in the test with HCT-116 colon, with OVCAR-8 ovarian and in the test with MDA-N was > 50 µM throughout.

Turning to `Cc1nc2cccc(F)c2c(=O)n1-c1nnc(C2CC2)s1`, the TGI with HOP-62 NSCLC, in the test on MCF7 breast, with OVCAR-3 ovarian, with UACC-62 melanoma, in the test with HS 578T breast and in the test with CCRF-CEM leukemia was > 10 µM in each case. The TGI in the test with SNB-75 CNS, with HCT-116 colon, with OVCAR-8 ovarian and in the test with MDA-N was > 10 µM in each case.

On to `Cc1cc(C)c(N)c(CO)c1`, for which the TGI is > 100 µM in the test on HOP-62 NSCLC; > 100 µM with MCF7 breast; > 100 µM with OVCAR-3 ovarian; > 90.2 µM in the test on UACC-62 melanoma; > 100 µM in the test on HS 578T breast; > 100 µM in the test with CCRF-CEM leukemia. The TGI in the test on SNB-75 CNS, in the test on HCT-116 colon, in the test with OVCAR-8 ovarian and in the test with MDA-N was > 100 µM each time. The GI50 in the test on MCF7 breast was 7.28 µM and 16 µM.

For `CSC(=N/N=C(\C)c1ccc(S(=O)(=O)N(C)c2ccccc2)cc1)SC`, the TGI was > 100 µM in the test on HOP-62 NSCLC; > 100 µM with MCF7 breast; > 100 µM in the test with OVCAR-3 ovarian; > 100 µM with UACC-62 melanoma; > 100 µM with HS 578T breast; > 95.2 µM with CCRF-CEM leukemia. Also, the TGI in the test with SNB-75 CNS, in the test on HCT-116 colon, in the test with OVCAR-8 ovarian and in the test on MDA-N was > 100 µM throughout.

For the compound `Cc1cnc2[nH]c(-c3sccc3C)cc(=O)c2c1`, the TGI in the test with HOP-62 NSCLC is > 100 µM; in the test on MCF7 breast, > 100 µM; in the test with OVCAR-3 ovarian, > 100 µM; in the test on UACC-62 melanoma, > 54.3 µM; in the test with HS 578T breast, 6.01 µM; with CCRF-CEM leukemia, > 100 µM. For the same compound, the TGI in the test on SNB-75 CNS is > 100 µM; in the test with HCT-116 colon it was > 100 µM; in the test with OVCAR-8 ovarian, > 100 µM; with MDA-N, 2.96 µM.

For the compound `Cc1cc(S(=O)(=O)Nc2n[nH]c(N)n2)c(S)cc1Cl`, the TGI with HOP-62 NSCLC, with MCF7 breast, in the test on OVCAR-3 ovarian, with UACC-62 melanoma, with HS 578T breast and in the test with CCRF-CEM leukemia was > 10 µM throughout. In addition, the TGI in the test with SNB-75 CNS, with HCT-116 colon, in the test on OVCAR-8 ovarian and with MDA-N was > 10 µM throughout.

In the case of `COc1ccc(C(OCC2OC(n3ccc(Oc4c(F)c(F)c(F)c(F)c4F)nc3=O)CC2OP(OCCC#N)N(C(C)C)C(C)C)(c2ccccc2)c2ccc(OC)cc2)cc1` (stereo unspecified), the TGI in the test on HOP-62 NSCLC, with MCF7 breast, in the test on OVCAR-3 ovarian, with UACC-62 melanoma, in the test with HS 578T breast and in the test on CCRF-CEM leukemia was > 100 µM throughout. The TGI in the test on SNB-75 CNS, in the test on HCT-116 colon, in the test with OVCAR-8 ovarian and with MDA-N was > 100 µM each time.

As to `CC(C)(C)C1=CC(O)(c2c3ccccc3c(C3(O)C=C(C(C)(C)C)C(=O)C(C(C)(C)C)=C3)c3ccccc23)C=C(C(C)(C)C)C1=O`, the TGI in the test on HOP-62 NSCLC, with MCF7 breast, in the test on OVCAR-3 ovarian, in the test on UACC-62 melanoma, with HS 578T breast and with CCRF-CEM leukemia was > 100 µM in each case. Moreover, the TGI in the test on SNB-75 CNS, in the test on HCT-116 colon, with OVCAR-8 ovarian and in the test with MDA-N was > 100 µM in each case.

As for `CC(=O)c1nc(C#N)c(N)o1`, the TGI with HOP-62 NSCLC, in the test on MCF7 breast, in the test with OVCAR-3 ovarian, with UACC-62 melanoma, in the test on HS 578T breast and with CCRF-CEM leukemia was > 100 µM each time. For the same compound, the TGI in the test on SNB-75 CNS, with HCT-116 colon, in the test on OVCAR-8 ovarian and in the test with MDA-N was > 100 µM each time.

For `COc1cc(C)c(S(=O)(=O)N(CCCN)OCCCN)c(C)c1C`, the TGI was > 100 µM in the test on HOP-62 NSCLC; 53.1 µM in the test with MCF7 breast; > 100 µM in the test on OVCAR-3 ovarian; > 100 µM in the test on UACC-62 melanoma; 65.2 µM in the test on HS 578T breast; > 100 µM in the test on CCRF-CEM leukemia. Besides, the TGI in the test with SNB-75 CNS, in the test with HCT-116 colon, in the test with OVCAR-8 ovarian and with MDA-N was > 100 µM throughout.

With `CC(=O)OCC12C(OC(C)=O)C[C@@H](C)C3(CC(c4ccoc4)OC3=O)C1CCC(OC(C)=O)C21CO1` (stereo partly specified), the TGI with HOP-62 NSCLC, with MCF7 breast, with OVCAR-3 ovarian, in the test on UACC-62 melanoma, with HS 578T breast and in the test on CCRF-CEM leukemia was > 100 µM each time. Besides, the TGI with SNB-75 CNS, with HCT-116 colon, in the test on OVCAR-8 ovarian and in the test on MDA-N was > 100 µM in each case.

`C=C1CC2C[C@H](OS(=O)(=O)c3ccc(C)cc3)C(C1)N2C` (stereo partly specified): the TGI in the test on HOP-62 NSCLC, with MCF7 breast, with OVCAR-3 ovarian, with UACC-62 melanoma, in the test on HS 578T breast and with CCRF-CEM leukemia was > 100 µM each time. The TGI with SNB-75 CNS, with HCT-116 colon, with OVCAR-8 ovarian and in the test on MDA-N was > 100 µM throughout.

In the case of `O=C1CCc2c(sc3ncnc(Nc4cccc(Br)c4)c23)C1`, the TGI with HOP-62 NSCLC is 18.7 µM; in the test with MCF7 breast it was 22.3 µM; in the test with OVCAR-3 ovarian, 8.31 µM; in the test on UACC-62 melanoma it was 11.1 µM; with HS 578T breast, > 79.8 µM; in the test on CCRF-CEM leukemia it was 4.38 µM. Further, the TGI amounted to 12.5 µM in the test on SNB-75 CNS, 11.7 µM in the test on HCT-116 colon, 21.3 µM in the test with OVCAR-8 ovarian and 7.69 µM in the test on MDA-N.

As to `CCOC(=O)c1sc2[n+](c1C)C(=O)/C(=C/c1ccccc1Cl)S2`, the TGI is 60.9 µM in the test with HOP-62 NSCLC; 15 µM in the test with MCF7 breast; 21.1 µM with OVCAR-3 ovarian; 19.3 µM in the test on UACC-62 melanoma; > 73.3 µM in the test on HS 578T breast; > 72.8 µM with CCRF-CEM leukemia. Further, the TGI in the test on SNB-75 CNS was > 54.3 µM; in the test on HCT-116 colon it was > 48 µM; in the test with OVCAR-8 ovarian, 35 µM; with MDA-N it was 0.565 µM.

As to `CC(=O)N1C(=O)/C(=C\C(=O)c2ccc(Cl)cc2)c2ccccc21`, the TGI was 41.2 µM with HOP-62 NSCLC; > 76.2 µM in the test on MCF7 breast; 30.6 µM in the test on OVCAR-3 ovarian; 28.6 µM in the test on UACC-62 melanoma; > 57.3 µM in the test with HS 578T breast; 7.58 µM with CCRF-CEM leukemia. The TGI is 35 µM in the test on SNB-75 CNS, 32.3 µM in the test on HCT-116 colon, 33.7 µM with OVCAR-8 ovarian and 30.9 µM with MDA-N.

`Cc1cccc2c1C(=O)/C(=C/c1ccccc1C(=O)O)C2`: the TGI with HOP-62 NSCLC, in the test on MCF7 breast, with OVCAR-3 ovarian, in the test on UACC-62 melanoma, in the test with HS 578T breast and in the test with CCRF-CEM leukemia was > 100 µM in each case. For the same compound, the TGI with SNB-75 CNS, with HCT-116 colon, in the test on OVCAR-8 ovarian and in the test on MDA-N was > 100 µM each time.

Take `N#Cc1nc(-c2ccccn2)c(-c2ccccn2)nc1C#N`: the TGI with HOP-62 NSCLC is 17 µM; in the test with MCF7 breast, 28 µM; with OVCAR-3 ovarian, > 42.9 µM; in the test on UACC-62 melanoma it was 5.1 µM; in the test with HS 578T breast it was 29.1 µM; with CCRF-CEM leukemia, > 38.4 µM. Also, the TGI is 22.9 µM in the test with SNB-75 CNS, 3.27 µM in the test on HCT-116 colon, 15.3 µM in the test on OVCAR-8 ovarian and > 100 µM in the test with MDA-N.

As to `O=C1CSC2=NC3=C(COC/C3=C\c3ccc(F)cc3)C(c3ccc(F)cc3)N12` (stereo unspecified), the TGI with HOP-62 NSCLC is > 100 µM; in the test with MCF7 breast it was > 100 µM; with OVCAR-3 ovarian, > 100 µM; in the test with UACC-62 melanoma, > 100 µM; with HS 578T breast, > 100 µM; in the test with CCRF-CEM leukemia, 74.5 µM. Besides, the TGI with SNB-75 CNS, in the test with HCT-116 colon, with OVCAR-8 ovarian and in the test on MDA-N was > 100 µM throughout.

Take `COc1nc2ncc([C@@H](O)[C@H](O)CO)nc2c(=O)[nH]1`: the TGI in the test on HOP-62 NSCLC, in the test with MCF7 breast, with OVCAR-3 ovarian, in the test on UACC-62 melanoma, with HS 578T breast and with CCRF-CEM leukemia was > 100 µM each time. In addition, the TGI in the test with SNB-75 CNS, in the test with HCT-116 colon, in the test with OVCAR-8 ovarian and in the test with MDA-N was > 100 µM each time.
